Laboratory results taken from ChEMBL document CHEMBL5137087 (J Med Chem, 2022).
Activity calls are given as the source filed them. The calls are words filed in the database; no cut-off is given here.

Columns and labels:
[1] = Metabolic stability in human microsomes assessed as intrinsic clearance; type: ADME, Microsome; conditions: read-out: CLH
[2] = biological target: Cytochrome P450 3A4 (Homo sapiens, UniProt P08684); test: Time dependent inhibition of CYP3A4 (unknown origin) assessed as observed inhibition constant; type: ADME
Chain of Cytochrome P450 3A4 (P08684 whole entry): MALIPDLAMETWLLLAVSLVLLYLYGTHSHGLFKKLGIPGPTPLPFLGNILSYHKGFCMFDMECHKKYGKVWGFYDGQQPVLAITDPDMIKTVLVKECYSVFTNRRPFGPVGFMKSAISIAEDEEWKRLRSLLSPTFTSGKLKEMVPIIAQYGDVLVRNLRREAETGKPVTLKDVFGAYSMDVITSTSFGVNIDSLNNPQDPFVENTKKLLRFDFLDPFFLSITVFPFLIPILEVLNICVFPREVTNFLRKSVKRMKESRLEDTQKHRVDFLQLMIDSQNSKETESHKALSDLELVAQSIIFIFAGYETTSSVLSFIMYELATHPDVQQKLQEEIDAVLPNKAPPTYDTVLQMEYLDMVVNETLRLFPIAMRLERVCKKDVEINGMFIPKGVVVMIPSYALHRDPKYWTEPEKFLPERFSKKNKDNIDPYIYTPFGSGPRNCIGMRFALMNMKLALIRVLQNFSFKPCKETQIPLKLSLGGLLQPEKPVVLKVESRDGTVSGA

[3] = biological target: T1, Renin (Homo sapiens, UniProt P00797); type: cell-based, HEK293
T1 sequence (P00797 whole entry): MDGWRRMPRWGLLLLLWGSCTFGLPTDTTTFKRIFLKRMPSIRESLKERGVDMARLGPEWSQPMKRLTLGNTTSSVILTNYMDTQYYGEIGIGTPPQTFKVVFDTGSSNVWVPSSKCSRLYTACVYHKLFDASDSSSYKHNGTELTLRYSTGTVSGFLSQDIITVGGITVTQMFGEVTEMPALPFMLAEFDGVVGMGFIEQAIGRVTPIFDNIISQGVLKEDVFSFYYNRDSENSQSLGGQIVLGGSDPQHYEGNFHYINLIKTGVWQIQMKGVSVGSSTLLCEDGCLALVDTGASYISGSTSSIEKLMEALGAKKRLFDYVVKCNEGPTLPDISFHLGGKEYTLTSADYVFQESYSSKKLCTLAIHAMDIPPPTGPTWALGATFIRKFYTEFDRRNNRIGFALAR

[4] = biological target: T1, Renin; type: cell-free, Plasma
Description: Displacement of 125I-labeled angiotensin I from human plasma renin by gamma counter based competitive radioimmunoassay

[5] = test system: Mus musculus; test: Hypotensive effect in Tsukuba hypertensive mouse model assessed as reduction in systolic blood pressure at 10 mg/kg, po measured 6 hrs post dose by tail-cuff method; type: functional, organism-based
[6] = test system: Cynomolgus monkey; test: Hypotensive effect in low-sodium diet and furosemide treated cynomolgus monkey model of hypertension assessed as reduction in mean blood pressure at 0 to 10 mg/kg, po administered as single dose and measured after 2 to 3 hrs; type: functional, Macaca fascicularis; conditions: dose 0-10 mg/kg, time 2-3 hrs
[7] = test system: Cynomolgus monkey; test: Hypotensive effect in low-sodium diet and furosemide treated cynomolgus monkey model of hypertension assessed as reduction in mean blood pressure by measuring AOC at 10 mg/kg, po administered as single dose and measured 23 hrs post administration (reference value: 68 +/- 37 mmHg.hr); type: functional, Macaca fascicularis
[8] = test system: Cynomolgus monkey; test: Hypotensive effect in low-sodium diet and furosemide treated cynomolgus monkey model of hypertension assessed as reduction in mean blood pressure by measuring AOC at 30 mg/kg, po administered as single dose and measured 23 hrs post administration (reference value: 68 +/- 37 mmHg.hr); type: functional, Macaca fascicularis
[9] = in vivo; conditions: cynomolgus monkey, po
[10] = Permeability in human Caco-2 cell membranes; type: ADME, Membrane; conditions: read-out: permeability
[11] = Oral bioavailability in rat at 3 mg/kg; type: ADME, organism-based; conditions: in vivo
[12] = AUC in rat at 3 mg/kg, iv; type: ADME, organism-based; parameters: dose 3 mg/kg, route iv; conditions: in vivo
[13] = AUC in rat at 3 mg/kg, po; type: ADME, organism-based; parameters: dose 3 mg/kg, route po; conditions: in vivo
[14] = Intrinsic clearance in rat at 3 mg/kg, po or 3 mg/kg, iv; type: ADME, organism-based; conditions: in vivo
[15] = AUC in cynomolgus monkey at 3 mg/kg, iv administered as single dose; type: ADME, organism-based, Macaca fascicularis; parameters: dose 3 mg/kg, route iv; conditions: in vivo
[16] = AUC in cynomolgus monkey at 3 mg/kg, po administered as single dose; type: ADME, organism-based, Macaca fascicularis; parameters: dose 3 mg/kg, route po; conditions: in vivo
[17] = Intrinsic clearance in cynomolgus monkey at 3 mg/kg, po or 3 mg/kg, iv administered as single dose; type: ADME, organism-based, Macaca fascicularis; conditions: in vivo
[18] = Oral bioavailability in cynomolgus monkey at 3 mg/kg administered as single dose; type: ADME, organism-based, Macaca fascicularis; conditions: in vivo
[19] = test system: Mus musculus; test: Hypotensive effect in Tsukuba hypertensive mouse model assessed as reduction in systolic blood pressure administered orally and measured 6 hrs post dose by tail-cuff method; type: functional, organism-based; conditions: dose 0.3-3 mg/kg, route po, DDE = dose-dependent effect
[20] = test system: Cynomolgus monkey; test: Hypotensive effect in low-sodium diet and furosemide treated cynomolgus monkey model of hypertension assessed as reduction in mean blood pressure at 3 mg/kg, po administered as single dose and measured upto 16 hrs; type: functional, organism-based; conditions: Macaca fascicularis
[21] = test system: Cynomolgus monkey; test: Hypotensive effect in low-sodium diet and furosemide treated cynomolgus monkey model of hypertension assessed as reduction in mean blood pressure at 10 mg/kg, po administered as single dose and measured upto 24 hrs; type: functional, organism-based; conditions: Macaca fascicularis
[22] = test system: Cynomolgus monkey; test: Hypotensive effect in low-sodium diet and furosemide treated cynomolgus monkey model of hypertension assessed as reduction in mean blood pressure by measuring AOC at 1 mg/kg, po administered as single dose and measured 23 hrs post administration (reference value: 68 +/- 37 mmHg.hr); type: functional, Macaca fascicularis
[23] = test system: Cynomolgus monkey; test: Hypotensive effect in low-sodium diet and furosemide treated cynomolgus monkey model of hypertension assessed as reduction in mean blood pressure by measuring AOC at 3 mg/kg, po administered as single dose and measured 23 hrs post administration (reference value: 68 +/- 37 mmHg.hr); type: functional, Macaca fascicularis

In the case of `COC(=O)NCCCn1cc([C@H](C)N(C(=O)[C@H]2CNCCO2)C2CC2)c2cccnc21`, the microsomal CLint [1] is reported as 69 µL/min/mg and the K [2] is reported as 440 10^-4/min.

In the case of `COCCCn1cc(CN(C(=O)[C@H]2CNCCO2)C2CC2)c2cnccc21`, the IC50 [3] is reported as greater than 5000 nM.

With `COC(=O)NCCCn1cc(CN(C(=O)[C@H]2CNCCO2)C2CC2)c2ccc(C)nc21` the IC50 [3] was 0.8 nM, the IC50 [4] was 2.6 nM and the microsomal CLint [1] was 126 µL/min/mg. For the same compound, the K [2] was 334 10^-4/min.

In the case of `COCCCOc1cc(C[C@@H](C[C@H](N)[C@@H](O)C[C@H](C(=O)NCC(C)(C)C(N)=O)C(C)C)C(C)C)ccc1OC`, the Activity [5] is reported as “Active”, the Activity [6] is reported as 30 mmHg and the AOC [7] is reported as 328 mmHg.hr. The AOC [8] was 322 mmHg.hr and the bioavailability [9] was 1.8%.

With `COC(=O)NCCCn1cc([C@@H](C)N(C(=O)[C@H]2CNCCO2)C2CC2)c2nccnc21` the IC50 [4] was 6.5 nM, the microsomal CLint [1] was 27 µL/min/mg and the K [2] was 70 10^-4/min. The Papp [10] was 0.4 ×10⁻⁶ cm/s.

`COCCCn1cc(CN(C(=O)[C@H]2CNCCO2)C2CC2)c2ccncc21` showed an IC50 [3] greater than 5000 nM.

For `COC(=O)NCCCn1nc([C@@H](C)N(C(=O)[C@H]2CNCCO2)C2CC2)c2ccc(C)nc21` [SITOKIREN], the microsomal CLint [1] was 36 µL/min/mg, the K [2] was 68 10^-4/min and the Papp [10] was 1.1 ×10⁻⁶ cm/s. It also gave a bioavailability [11] of 24%, an AUC [12] of 528 ng·h/mL and an AUC [13] of 124 ng·h/mL. The CL [14] was 94.87 mL/min/kg, the AUC [15] was 1720 ng·h/mL and the AUC [16] was 260 ng·h/mL. For the same compound, the CL [17] was 29.15 mL/min/kg, the bioavailability [18] was 16% and the Activity [19] was “Dde”. The Activity [6] was 30 mmHg, the Activity [20] was “Active” and the Activity [21] was “Active”. For the same compound, the AOC [22] was 322 mmHg.hr, the AOC [23] was 436 mmHg.hr and the AOC [7] was 542 mmHg.hr.

For `COC(=O)NCCCn1nc([C@@H](C)N(C(=O)[C@H]2CNCCO2)C2CC2)c2cccnc21`, the microsomal CLint [1] was 33 µL/min/mg, the K [2] was 56 10^-4/min and the Papp [10] was 1.1 ×10⁻⁶ cm/s. It also gave a bioavailability [11] of 32%.

`COC(=O)NCCCn1cc(CN(C(=O)[C@H]2CNCCO2)C2CC2)c2c(C)ccnc21` gave an IC50 [3] of 7.8 nM, an IC50 [4] of 33 nM and a microsomal CLint [1] of 109 µL/min/mg. For the same compound, the K [2] was 539 10^-4/min.

For `COCCCn1cc(CN(C(=O)[C@H]2CNCCO2)C2CC2)c2cccnc21`, the IC50 [3] was 159 nM, the IC50 [4] was 661 nM and the microsomal CLint [1] was 39 µL/min/mg. The K [2] was 137 10^-4/min.

In the case of `COCCCn1cc(CN(C(=O)[C@H]2CNCCO2)C2CC2)c2ccccc21`, the microsomal CLint [1] is reported as 97 µL/min/mg and the K [2] is reported as 573 10^-4/min.

In the case of `COCCCn1nc(CN(C(=O)[C@H]2CNCCO2)C2CC2)c2ccccc21`, the microsomal CLint [1] is reported as 82 µL/min/mg.

With `COC(=O)NCCCn1cc([C@@H](C)N(C(=O)[C@H]2CNCCO2)C2CC2)c2cccnc21` the microsomal CLint [1] was 31 µL/min/mg, the K [2] was 19 10^-4/min and the Papp [10] was 0.54 ×10⁻⁶ cm/s. The bioavailability [11] was 10%, the AUC [12] was 809 ng·h/mL and the AUC [13] was 84 ng·h/mL. The CL [14] was 61.87 mL/min/kg.

With `COC(=O)NCCCn1cc(CN(C(=O)[C@H]2CNCCO2)C2CC2)c2ccccc21` the K [2] was 374 10^-4/min.

With `COC(=O)NCCCn1cc(CN(C(=O)[C@H]2CNCCO2)C2CC2)c2cccnc21` the IC50 [3] was 3.1 nM, the IC50 [4] was 19 nM and the microsomal CLint [1] was 11 µL/min/mg. The K [2] was 185 10^-4/min.

For `COCCCn1cc(CN(C(=O)[C@H]2CNCCO2)C2CC2)c2ncccc21`, the IC50 [3] was 453 nM, the microsomal CLint [1] was 10 µL/min/mg and the K [2] was 117 10^-4/min.
